Measured values reported in patent US20130178653A1, “NOVEL PRECURSOR OF RADIOLABELLED CHOLINE ANALOG COMPOUNDS” (IMPERIAL COLLEGE, priority 2010, published 2013).
Like-named read-outs stand apart in the source and are kept apart here.

What was measured:
[1] = Oxidation potential in vivo (radio-HPLC of mouse plasma after i.v. injection); details: 15 min after i.v. injection into mice
[2] = mouse, in vivo; for form of radioactivity in tumors: iv
Description: Metabolite analysis of tissues including liver, kidney and tumor by HPLC was also accomplished. […] Choline and its metabolites lack any UV chromophore to permit presentation of chromatograms of the cold unlabelled compound simultaneously with the radioactivity chromatograms.
Liver, kidney, and tumor samples were obtained at 30 min. All samples were snap-frozen in liquid nitrogen. […] To ˜0.2 mL plasma was added ice-cold methanol (1.5 mL). The mixture was then centrifuged (3 min, 15,493×g, 4jC). […] Liver, kidney, and tumor samples were homogenized in ice-cold methanol (1.5 mL) using an IKA Ultra-Turrax T-25 homogenizer and subsequently treated as per plasma samples (above). All samples were analyzed by radio-HPLC on an Agilent 1100 series HPLC system (Agilent Technologies) equipped with a γ-RAM Model 3 γ-detector (IN/US Systems) and Laura 3 software (Lablogic). The stationary phase comprised a Waters μBondapak C18 reverse-phase column (300×7.8 mm) (Waters, Milford, Mass., USA). Samples were analyzed using a mobile phase comprising solvent A (acetonitrile/water/ethanol/acetic acid/1.0 mol/L ammonium acetate/0.1 mol/L sodium phosphate; 800/127/68/2/3/10) and solvent B (acetonitrile/water/ethanol/acetic acid/1.0 mol/L ammonium acetate/0.1 mol/L sodiumphosphate; 400/400/68/44/88/10) with a gradient of 0% B for 6 min, then 0>100% B in 10 min, 100% B for 0.5 min, 100>0% B in 1.5 min then 0% B for 2 min, delivered at a flow rate of 3 mL/min

[3] = system: choline oxidase; details: 60 min, 1.76 MBq/mL, pH 7
[4] = for parent compound still present after potassium permanganate treatment: 1 hour post-treatment, KMnO4, Na2CO3, H2O, rt, radio-HPLC
[5] = system: human melanoma SKMEL-28 xenografts; details: mouse, in vivo
Description: (§1) Dynamic [^18F]FCH and [^18F]D4-FCH imaging scans were carried out on a dedicated small animal PET scanner, quad-HIDAC (Oxford Positron Systems). The features of this instrument have been described previously (Barthel, H., et al., Cancer Res 2003; 63(13):3791-8). For scanning the tail veins, vehicle- or drug-treated mice were cannulated after induction of anesthesia (isofluorane/O2/N2O). The animals were placed within a thermostatically controlled jig (calibrated to provide a rectal temperature of ˜37° C.) and positioned prone in the scanner. [^18F]FCH or [^18F]D4-FCH (2.96-3.7 MBq) was injected via the tail vein cannula and scanning commenced. Dynamic scans were acquired in list mode format over a 60 min period as reported previously (Leyton, J., et al., Cancer Research 2006; 66(15):7621-9). The acquired data were sorted into 0.5 mm sinogram bins and 19 time frames (0.5×0.5×0.5 mm voxels; 4×15, 4×60, and 11×300 s) for image reconstruction, which was done by filtered back-projection using a two-dimensional Hamming filter (cutoff 0.6). The image data sets were visualized using the Analyze software (version 6.0; Biomedical Imaging Resource, Mayo Clinic). Cumulative images of 30 to 60 min dynamic data were used for visualization of radiotracer uptake and to draw regions of interest. Regions of interest were defined manually on five adjacent tumor regions (each 0.5 mm thickness). Dynamic data from these slices were averaged for each tissue (liver, kidney, muscle, urine, and tumor) and at each of the 19 time points to obtain time versus radioactivity curves. Corresponding whole body time versus radioactivity curves representing injected radioactivity were obtained by adding together radioactivity in all 200×160×160 reconstructed voxels. Tumor radioactivity was normalized to whole-body radioactivity and expressed as percent injected dose per voxel (% ID/vox). The normalized uptake of radiotracer at 60 min (% ID/vox60) was used for subsequent comparisons. The average of the normalized maximum voxel intensity across five slices of tumor % IDvox60max was also use for comparison to account for tumor heterogeneity and existence of necrotic regions in tumor. The area under the curve was calculated as the integral of % ID/vox from 0 to 60 min

[6] = mouse, in vivo, 60 min
Description: as §1

[7] = system: HCT116 tumors; assay: Effect of PD0325901 treatment in HCT116 tumor bearing mice ([^18F]D4-FCH-PET, tumor size); assay type: in vivo
Description: as §1, with “The average of the normalized maximum voxel intensity across five slices of tumor % IDvox60max was also use for comparison to account for tumor heterogeneity and existence of necrotic regions in tumor.” left out

[8] = system: choline kinase A (CHKA); assay: Choline kinase A expression in HCT116 tumors by western blotting; assay type: in vivo, mice; details: day 10, 25 mg/kg daily orally
Description: HCT116 tumors from mice that were injected with PD0325901 (25 mg/kg daily for 10 days, orally) or vehicle were analyzed for CHKA expression by western blotting. β-actin was used as the loading control. (b) Summary densitometer measurements for CHKA expression expressed as a ratio to β-actin. The results are the mean ratios±SE; n=3, * P=0.05.
Size-matched HCT116 tumor bearing mice were randomized to receive daily treatment by oral gavage of vehicle (0.5% hydroxypropyl methylcellulose+0.2% Tween 80) or 25 mg/kg (0.005 mL/g mouse) of the mitogenic extracellular kinase inhibitor, PD0325901, prepared in vehicle. [^18F]D4-FCH-PET scanning was done after 10 daily treatments with the last dose administered 1 h before scanning. […] The results are illustrated in FIGS. 18 and 19.
To understand further the mechanisms regulating [^18F]D4-FCH uptake with drug treatment, changes in CHKA expression in PD0325901 and vehicle-treated tumors excised after PET scanning were assessed.

[9] = system: HCT116 cells; assay: Effect of PD0325901 on [^18F]D4-FCH metabolism and CHKA expression in HCT116 cells in culture; assay type: cell-based, human
Description: HCT116 cells were grown in T150 flasks in triplicate until they were 70% confluent and then treated with vehicle (1% DMSO in growth medium) or 1 μmol/L PD0325901 in vehicle for 24 h. Cells were pulsed for 1 h with 1.1 MBq of either [^18F]D4-FCH or [^18F]FCH. The cells were washed three times in ice-cold phosphate buffered saline (PBS), scraped into 5 mL PBS, and centrifuged at 500×g for 3 min and then resuspended in 2 mL ice-cold methanol for HPLC analysis as described above for tissue samples. […] Briefly, HCT116 cells were grown in 100 mm dishes in triplicate and incubated with 5.0 MBq [^18F]FCH for 60 min at 37° C. to form the putative [^18F]FCH-phosphate. The cells were washed with 5 mL ice-cold PBS twice and then scraped and centrifuged at 750×g (4° C., 3 min) in 5 mL PBS. Cells were homogenized in 1 mL of 5 mmol/L Tris-HCl (pH 7.4) containing 50% (v/v) glycerol, 0.5 mmol/L MgCl2, and 0.5 mmol/L ZnCl2 and incubated with 10 units bacterial (type III) alkaline phosphatase (Sigma) at 37° C. in a shaking water bath for 30 min to dephosphorylate the [^18F]FCH-phosphate. The reaction was terminated by adding ice-cold methanol. Samples were processed as per plasma above and analyzed by radio-HPLC. Control experiments were done without alkaline phosphatase. […]

[10] = mouse, in vivo
[11] = system: choline oxidase; assay: Enzymatic oxidation study using choline oxidase; details: 60 minute time point, room temperature, pH 7
[12] = system: HCT116 human colon xenografts; details: mouse, in vivo
Description: Time course biodistribution was carried out for [^18F]fluoromethylcholine, [^18F]fluoromethyl-[1-^2H2]choline and [^18F]fluoromethyl-[1,2-^2H4]choline in nude mice bearing HCT116 human colon xenografts.
Human colon (HCT116) tumors were grown in […] (Harlan, Bicester, United Kingdom) as previously reported (Leyton, J., et al., Cancer Research 2005; 65(10):4202-10). Tumor dimensions were measured continuously using a caliper and tumor volumes were calculated by the equation: volume=(π/6)×a×b×c, where a, b, and c represent three orthogonal axes of the tumor. Mice were used when their tumors reached approximately 100 mm^3. [^18F]Fluoromethylcholine, [^18F]fluoromethyl-[1-^2H2]choline and [^18F]fluoromethyl-[1,2-^2H4]choline (˜3.7 MBq) were each injected via the tail vein into awake untreated tumor bearing mice. The mice were sacrificed at pre-determined time points (2, 30 and 60 min) after radiotracer injection under terminal anesthesia to obtain blood, plasma, tumor, heart, lung, liver, kidney and muscle. Tissue radioactivity was determined on a gamma counter (Cobra II Auto-Gamma counter, Packard Biosciences Co, Pangbourne, UK) and decay corrected. Data were expressed as percent injected dose per gram of tissue.

C[N+](C)(C[18F])CCO [[^18F]FCH, [^18F]Fluoromethylcholine]
conversion of parent tracer to betaine metabolite in plasma [1]: 80%
liver radioactivity present as phosphocholine [2]: high proportion
unknown metabolite (possibly the aldehyde intermediate) in liver [2]: not found
kidney radioactivity in the form of betaine ([2]; 30 min): 53.5±5.3%
kidney radioactivity present as phosphocholine ([2]; 30 min): 31.8±9.8%
unknown metabolite in kidney ([2]; 30 min): 3.3±0.6%
form of radioactivity in tumors ([2]; 30 min): significant levels of [^18F]FCH-betaine
parent radiotracer present (radio-HPLC distribution of choline species) [3]: 11±8%
parent compound still present after potassium permanganate treatment [4]: less than 40%
tumor radiotracer uptake, % ID/vox60 ([5]; 60 min): 5.50±0.49 % ID/vox
bladder (urine) radioactivity, % ID/vox60 [6]: 6.70±0.71 % ID/vox
kidney radioactivity, % ID/vox60 [6]: 15.97±4.65 % ID/vox
liver radioactivity, % ID/vox60 [6]: 18.75±4.28 % ID/vox

O=C(NOC[C@H](O)CO)c1ccc(F)c(F)c1Nc1ccc(I)cc1F [PD0325901]
[^18F]D4-FCH radiotracer retention in treated tumors ([7]; 10 daily treatments 25 mg/kg, HCT116 tumors, PET): marked reduction in radiotracer retention
imaging variables (% ID/vox60, % ID/vox60max, AUC) of [^18F]D4-FCH ([7]; after 10 days of drug treatment, HCT116 tumors): decreased
reduction in tumor size compared to the pretreatment group ([7]; day 10, 25 mg/kg daily oral, HCT116 xenograft): 12.2%
CHKA protein expression in tumors [8]: significant reduction
[^18F]D4-FCH-phosphocholine formation ([9]; 1 μmol/L for 24 h, 60-min uptake of [^18F]D4-FCH): significantly inhibited
CHKA expression in vitro ([9]; exponentially growing cells): reduction of CHKA expression

[2H]C([2H])(O)C([2H])([2H])[N+](C)(C)C[18F] [[^18F]D4-FCH, [^18F]fluoromethyl-[1,2-^2H4]choline]
kidney radioactivity in the form of betaine [2]: 20.6±6.2%
kidney radioactivity present as phosphocholine [2]: 60.6±3.7%
liver radioactivity present as phosphocholine [2]: high proportion
unknown metabolite (possibly the aldehyde intermediate) in liver [2]: 7.4±2.3%
unknown metabolite in kidney [2]: 8.8±0.2%
form of radioactivity in tumors [2]: mainly in the form of phosphocholine
percentage of parent compound in plasma compared to [^18F]FCH [10]: consistently higher
conversion of parent tracer to betaine metabolite in plasma ([10]; iv): 40%
parent radiotracer present (radio-HPLC distribution of choline species) [11]: 29±4%
proportion of parent compound remaining (radio-HPLC), relative to [^18F]fluoromethylcholine ([4]; 20 min): greater proportion of the parent compound remaining
parent compound still present after potassium permanganate treatment [4]: ~80%
%IDvox60max (average of maximum pixel % ID/vox60 across 5 slices) compared to [^18F]FCH [5]: significantly higher
tumor area under the time versus radioactivity curve (AUC) compared to FCH [5]: higher
tumor uptake at the later time points [12]: pronounced increase
